According to patent US9708314B2, “Heterocyclic amide compound” (NISSAN CHEMICAL INDUSTRIES, LTD., priority 2013, dated 2017):

Assays:
Format in all cases: in vivo
[1] = test system: Monochoria vaginalis; test: Test Example 1: herbicidal activity, application before weed generation in submerged conditions; conditions: Seventeenth Table
In short: (§1)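 Water-diluted emulsion formulation is applied onto flood water (4 cm deep) covering alluvial soil on the day weed seeds are sown, after transplanting 2.5 leaf stage rice. Rates are expressed per hectare. Injury or control is graded 0–5 three weeks later.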

[2] = test system: Echinochloa oryzacola Vasing.; test: as above; conditions: Seventeenth Table
In short: as §1

[3] = test system: Scirpus juncoides; test: as above; conditions: Seventeenth Table
In short: as §1

[4] = test system: Chenopodium album; test: Test Example 4: herbicidal effect by application to foliage (diluvial soil, plastic box)
In short: (§2)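 Greenhouse plants (25° C. to 30° C., 14 d, diluvial soil) receive a foliar spray of water-diluted emulsifiable formulation at defined g/ha. Grading after 3 weeks uses a six-step herbicidal-ratio scale, with 4 covering 70% to <90% and 1 covering 5% to <20%.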

[5] = test system: Setaria viridis; test: as above
In short: as §2

[6] = test system: Galium spurium; test: as above
In short: as §2

[7] = test system: Apera spica-venti.; test: as above
In short: as §2

[8] = test system: Avena fatua; test: as above
In short: as §2

[9] = test system: Digitaria ciliaris; test: as above
In short: as §2

[10] = test system: Veronica persica; test: as above
In short: as §2

[11] = test system: Lolium multiflorum Lam.; test: as above
In short: as §2

[12] = test system: Alopecurus myosuroides; test: as above
In short: as §2

[13] = test system: Abutilon theophrasti; test: as above
In short: as §2

[14] = test system: Echinochloa crus-galli var. crus-galli; test: as above
In short: as §2

[15] = test system: transplanted Oryza sativa; test: Test Example 1: effect on crop, application before weed generation in submerged conditions; conditions: Seventeenth Table
In short: as §1

[16] = Application herbicide amount 192 g/ha
[17] = Application herbicide amount 141 g/ha
[18] = application to foliage, 141 g/ha

SMILES: Cc1cc(C(=O)Nc2nnnn2C)c2nnc(C(C)C)n2c1C(F)(F)F [2-050]
- C: Monochoria vaginalis (herbicidal effect grade) [1, 16]: 3 (Herbicidal ratio of 40% or more and less than 70%)
- A: Echinochloa oryzicola Vasing. (herbicidal effect grade) [2, 16]: 4 (Herbicidal ratio of 70% or more and less than 90%)
- B: Scirpus juncoides (herbicidal effect grade) [3, 16]: 2 (Herbicidal ratio of 20% or more and less than 40%)
- O (Chenopodium album) herbicidal effect grade ([4]; foliage application, 192 g/ha): 5 (Herbicidal ratio of 90% or more (almost completely withered))
- G (Setaria viridis) herbicidal effect grade ([5]; foliage application, 192 g/ha): 1 (Herbicidal ratio of 5% or more and less than 20%)
- Q (Galium spurium) herbicidal effect grade ([6]; foliage application, 192 g/ha): 0 (Herbicidal ratio of 5% or less (almost no effect))
- L (Apera spica-venti.) herbicidal effect grade ([7]; foliage application, 192 g/ha): 0 (Herbicidal ratio of 5% or less (almost no effect))
- I (Avena fatua) herbicidal effect grade ([8]; foliage application, 192 g/ha): 2 (Herbicidal ratio of 20% or more and less than 40%)
- F (Digitaria ciliaris) herbicidal effect grade ([9]; foliage application, 192 g/ha): 3 (Herbicidal ratio of 40% or more and less than 70%)
- R (Veronica persica) herbicidal effect grade ([10]; foliage application, 192 g/ha): 3 (Herbicidal ratio of 40% or more and less than 70%)
- K (Lolium multiflorum Lam.) herbicidal effect grade ([11]; foliage application, 192 g/ha): 0 (Herbicidal ratio of 5% or less (almost no effect))
- J (Alopecurus myosuroides) herbicidal effect grade ([12]; foliage application, 192 g/ha): 0 (Herbicidal ratio of 5% or less (almost no effect))
- M (Abutilon theophrasti) herbicidal effect grade ([13]; foliage application, 192 g/ha): 3 (Herbicidal ratio of 40% or more and less than 70%)
- H (Echinochloa crus-galli var. crus-galli) herbicidal effect grade ([14]; foliage application, 192 g/ha): 3 (Herbicidal ratio of 40% or more and less than 70%)
- a: transplanted Oryza sativa (effect on crop grade) [15, 16]: 2 (Herbicidal ratio of 20% or more and less than 40%)

SMILES: CCN(C)c1nnc2c(C(=O)Nc3nnnn3C)ccc(C(F)(F)F)n12 [2-088]
- C: Monochoria vaginalis (herbicidal effect grade) [1, 17]: 5 (Herbicidal ratio of 90% or more (almost completely withered))
- A: Echinochloa oryzicola Vasing. (herbicidal effect grade) [2, 17]: 5 (Herbicidal ratio of 90% or more (almost completely withered))
- B: Scirpus juncoides (herbicidal effect grade) [3, 17]: 5 (Herbicidal ratio of 90% or more (almost completely withered))
- herbicidal effect, O (Chenopodium album) [4, 18]: 5 (Herbicidal ratio of 90% or more (almost completely withered))
- herbicidal effect, G (Setaria viridis) [5, 18]: 5 (Herbicidal ratio of 90% or more (almost completely withered))
- herbicidal effect, Q (Galium spurium) [6, 18]: 3 (Herbicidal ratio of 40% or more and less than 70%)
- herbicidal effect, L (Apera spica-venti.) [7, 18]: 4 (Herbicidal ratio of 70% or more and less than 90%)
- herbicidal effect, I (Avena fatua) [8, 18]: 4 (Herbicidal ratio of 70% or more and less than 90%)
- herbicidal effect, F (Digitaria ciliaris) [9, 18]: 5 (Herbicidal ratio of 90% or more (almost completely withered))
- herbicidal effect, R (Veronica persica) [10, 18]: 4 (Herbicidal ratio of 70% or more and less than 90%)
- herbicidal effect, K (Lolium multiflorum Lam.) [11, 18]: 3 (Herbicidal ratio of 40% or more and less than 70%)
- herbicidal effect, J (Alopecurus myosuroides) [12, 18]: 3 (Herbicidal ratio of 40% or more and less than 70%)
- herbicidal effect, M (Abutilon theophrasti) [13, 18]: 5 (Herbicidal ratio of 90% or more (almost completely withered))
- herbicidal effect, H (Echinochloa crus-galli var. crus-galli) [14, 18]: 5 (Herbicidal ratio of 90% or more (almost completely withered))
- a: transplanted Oryza sativa (effect on crop grade) [15, 17]: 3 (Herbicidal ratio of 40% or more and less than 70%)
